Results taken from patent publication US8716312B2, “Inhibitors of diacylglycerol acyltransferase” (Merck Sharp & Dohme Corporation, priority 2008, dated 2014).

Target: T1, human DGAT1 enzyme (Homo sapiens, UniProt O75907)
T1 sequence (O75907 1-488): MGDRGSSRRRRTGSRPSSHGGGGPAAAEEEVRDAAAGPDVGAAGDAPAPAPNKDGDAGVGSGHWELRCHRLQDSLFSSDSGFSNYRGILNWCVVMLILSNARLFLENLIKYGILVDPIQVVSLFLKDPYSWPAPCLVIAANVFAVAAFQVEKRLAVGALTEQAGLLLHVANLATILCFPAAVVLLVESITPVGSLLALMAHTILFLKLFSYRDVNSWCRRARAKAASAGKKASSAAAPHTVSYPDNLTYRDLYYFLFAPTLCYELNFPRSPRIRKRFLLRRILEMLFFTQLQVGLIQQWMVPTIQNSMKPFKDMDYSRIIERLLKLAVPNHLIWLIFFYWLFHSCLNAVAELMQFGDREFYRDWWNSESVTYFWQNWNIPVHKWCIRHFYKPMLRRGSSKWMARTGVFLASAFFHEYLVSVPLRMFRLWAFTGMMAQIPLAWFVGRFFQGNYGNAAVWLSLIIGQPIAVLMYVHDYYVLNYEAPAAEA
Experiment: in vitro DGAT1 inhibition assay (microsomes, [14C]-palmitoyl-CoA, SPA beads)
Method: The in vitro assay to identify DGAT1 inhibitors uses human DGAT1 enzyme expressed in Sf9 insect cells prepared as microsomes. The reaction is initiated by the addition of the combined substrates 1,2-dioleoyl-sn-glycerol and [^14C]-palmitoyl-Co A and incubated with test compounds and microsomal membranes for 2 hours at room temperature. The assay is stopped by adding 0.5 mg wheat germ agglutinin beads in assay buffer with 1% Brij-35 and 1% 3-cholamidopropyldimethyl-ammonio-1-propane sulfonate. Plates are sealed with TopSeal and incubated for 18 hours to allow the radioactive triglyceride product to come into proximity with the bead. Plates are read on a TopCount instrument.
Percent inhibition was calculated as the percent of (test compound inhibition minus non-specific binding) relative to (total binding minus non-specific binding). IC50 values were determined by curve fitting the data to a Sigmoidal dose-response in GraphPad Prism utilizing the following equation: Y=A+(B−A)/(1+10^((Log IC50−X))), where A and B are the bottom and top of the curve (highest and lowest inhibition), respectively, and X is the logarithm of concentration.

| Structure (SMILES) | IC50 |
| --- | --- |
| O=C(Nc1ccc(N2CCN(C(=O)C3Cc4ccccc4C3)CC2)nc1)c1oc(N2CCC(c3ccccc3)CC2)nc1C(F)(F)F [Compound 244, N-(6-(4-(2,3-dihydro-1H-indene-2-carbonyl)piperazin-1-yl)pyridin-3-yl)-2-(4-phenylpiperidin-1-yl)-4-(trifluoromethyl)oxazole-5-carboxamide] | 101 to 500 nM |
| O=C(Nc1ccc(N2CCN(C(=O)Nc3ccccc3F)C(=O)C2)nc1)c1oc(N2CCC(c3ccccc3)CC2)nc1C(F)(F)F [Compound 248, N-(6-(4-(2-fluorophenylcarbamoyl)-3-oxopiperazin-1-yl)pyridin-3-yl)-2-(4-phenylpiperidin-1-yl)-4-(trifluoromethyl)oxazole-5-carboxamide] | 101 to 500 nM |
| CC1CCCN(c2nc(C(F)(F)F)c(C(=O)Nc3ccc(N4CCC(OCc5cccc(C(=O)O)c5)CC4)nc3)o2)C1 (centres unmarked) [Compound 254, 3-((1-(5-(2-(3-methylpiperidin-1-yl)-4-(trifluoromethyl)oxazole-5-carboxamido)pyridin-2-yl)piperidin-4-yloxy)methyl)benzoic acid] | 11 to 100 nM |
| CC1CCCN(c2nc(C(F)(F)F)c(C(=O)Nc3ccc(N4CCC(OCc5ccccc5C(=O)O)CC4)nc3)o2)C1 (centres unmarked) [Compound 255, 2-((1-(5-(2-(3-methylpiperidin-1-yl)-4-(trifluoromethyl)oxazole-5-carboxamido)pyridin-2-yl)piperidin-4-yloxy)methyl)benzoic acid] | 11 to 100 nM |
| O=C(O)c1cccc(COC2CCN(c3ccc(NC(=O)c4oc(N5CCC(c6ccccc6)CC5)nc4C(F)(F)F)cn3)CC2)c1 [Compound 256, 3-((1-(5-(2-(4-phenylpiperidin-1-yl)-4-(trifluoromethyl)oxazole-5-carboxamido)pyridin-2-yl)piperidin-4-yloxy)methyl)benzoic acid] | 11 to 100 nM |
| O=C(O)c1cccc(OCC2CCN(c3ccc(NC(=O)c4oc(N5CCC(c6ccccc6)CC5)nc4C(F)(F)F)cn3)CC2)c1 [Compound 264, 3-((1-(5-(2-(4-phenylpiperidin-1-yl)-4-(trifluoromethyl)oxazole-5-carboxamido)pyridin-2-yl)piperidin-4-yl)methoxy)benzoic acid] | 11 to 100 nM |
| O=C(O)c1ccccc1OCC1CCN(c2ccc(NC(=O)c3oc(N4CCC(c5ccccc5)CC4)nc3C(F)(F)F)cn2)CC1 [Compound 266, 2-((1-(5-(2-(4-phenylpiperidin-1-yl)-4-(trifluoromethyl)oxazole-5-carboxamido)pyridin-2-yl)piperidin-4-yl)methoxy)benzoic acid] | 101 to 500 nM |
| O=C(O)c1ccc(F)c(OCC2CCN(c3ccc(NC(=O)c4oc(N5CCC(c6ccccc6)CC5)nc4C(F)(F)F)cn3)CC2)c1 [Compound 268, 4-fluoro-3-((1-(5-(2-(4-phenylpiperidin-1-yl)-4-(trifluoromethyl)oxazole-5-carboxamido)pyridin-2-yl)piperidin-4-yl)methoxy)benzoic acid] | 11 to 100 nM |
